Test results: ChEMBL document CHEMBL1687690, “Antiproliferative and differentiating activities of a novel series of histone deacetylase inhibitors” (ACS Med Chem Lett, 2010)
Active and inactive are the calls of the source. The calls are words filed in the database; no cut-off is given here.

Legend:
[1] = biological target: T1, Histone deacetylase (Homo sapiens) (UniProt Q13547+O15379+Q9UBN7+Q92769+Q9UQL6+Q8WUI4+Q9BY41+Q96DB2+P56524+Q9UKV0+Q969S8); assay: Inhibition of HDAC activity in human NB4 cells assessed as maximum acetylation of histone H4 at EC50 concentration after 24 hrs by Western blot analysis relative to control; type: cell-based; conditions: NB-4
[2] = biological target: Histone deacetylase; assay: Inhibition of HDAC activity in human NB4 cells assessed as acetylation of histone H3 after 24 hrs by Western blot analysis; type: cell-based; conditions: nb-4
[3] = biological target: T1, Histone deacetylase (Homo sapiens); assay: Inhibition of HDAC activity in human NB4 cells assessed as maximum acetylated tubulin at EC50 concentration after 24 hrs by Western blot analysis relative to control; type: cell-based; conditions: NB-4
[4] = system: NB-4; assay: Antiproliferative activity against human NB4 cells after 24 hrs by alamar blue assay; type: functional, cell-based; conditions: NB-4, 24 h
[5] = biological target: T1, Histone deacetylase (Homo sapiens); assay: Inhibition of HDAC activity in human NB4 cells assessed as maximum acetylation of histone H3 at EC50 concentration after 24 hrs by Western blot analysis relative to control; type: cell-based; conditions: NB-4
[6] = biological target: Tubulin; assay: Inhibition of HDAC activity in human NB4 cells assessed as acetylated tubulin after 24 hrs by Western blot analysis; type: cell-based; conditions: nb-4
[7] = system: NB-4; assay: Potentiation of all-trans retinoic acid-induced human NB4 cells differentiation after 72 hrs by NBT-reductase activity assay relative HDAC inhibitor alone; type: functional
[8] = biological target: Histone deacetylase; assay: Inhibition of HDAC activity in human NB4 cells assessed as acetylation of histone H4 after 24 hrs by Western blot analysis; type: cell-based; conditions: nb-4
[9] = system: HCT-116; assay: Antiproliferative activity against human HCT116 cells after 24 hrs by alamar blue assay; type: functional, cell-based; conditions: HCT-116, 24 h
[10] = system: HCT-116; assay: Antitumor activity against human HCT116 cells xenografted in athymic nude mouse assessed as decrease in tumor volume at 25 mg/kg, iv administered once daily for 5 days per week by caliper measurement; type: functional, organism-based; set-up: dose 25 mg/kg
[11] = Ratio of IC50 for HDAC2 to IC50 for HDAC6
[12] = system: HCT-116; assay: Antitumor activity against human HCT116 cells xenografted in athymic nude mouse assessed as decrease in tumor volume at 12.5 mg/kg, iv administered once daily for 5 days per week by caliper measurement; type: functional, organism-based; set-up: dose 12.5 mg/kg
[13] = system: HCT-116; assay: Antitumor activity against human HCT116 cells xenografted in athymic nude mouse assessed as decrease in tumor volume at 6.2 mg/kg, iv administered once daily for 5 days per week by caliper measurement; type: functional, organism-based; set-up: dose 6.2 mg/kg

SMILES | Ratio [1] | EC50 [2] | Ratio [3] | Ratio [5] | EC50 [6] | EC50 [8] | IC50 [9] | Ratio IC50 [11] | IC50 [4] | Ratio [7] | inhibition [10] | inhibition [12] | inhibition [13]
O=C(CCCCCN1C(=O)c2ccccc2Nc2ccc(Cl)cc21)NO | 78 | 840 nM | 413 | 31 | 320 nM | 860 nM | 450 nM | – | 290 nM | 1 | – | – | –
CN1c2ccccc2C(=O)N(CCCCCC(=O)NO)c2ccccc21 | 14 | 2650 nM | 40 | 10 | 2740 nM | 2950 nM | 8100 nM | – | 2460 nM | 13 | – | – | –
O=C(CCCCCN1C(=O)c2ccccc2Nc2ccccc21)NO | 126 | 1300 nM | 402 | 188 | 1170 nM | 1530 nM | > 10000 nM | – | 730 nM | 6 | – | – | –
O=C(CCCCCN1C(=O)c2ccccc2Sc2ccccc21)NO | 89 | 460 nM | 2000 | 190 | 370 nM | 430 nM | 390 nM | – | 190 nM | 5 | – | – | –
O=C(CCCCCN1C(=O)c2ccccc2Oc2ccccc21)NO | 54 | 6240 nM | 2630 | 15 | 290 nM | 3270 nM | 640 nM | 61 | 610 nM | 2 | – | – | –
O=C(CCCCCN1C(=O)c2ccccc2Oc2ccc(Cl)cc21)NO | 9 | 380 nM | 932 | 3 | 440 nM | 530 nM | 200 nM | – | 160 nM | 1 | – | – | –

These reach a lower EC50 [6]. Values come first.

Ratio [1] | EC50 [2] | Ratio [3] | Ratio [5] | EC50 [6] | EC50 [8] | IC50 [9] | Ratio IC50 [11] | SMILES | IC50 [4] | Ratio [7] | inhibition [10] | inhibition [12] | inhibition [13]
28 | 190 nM | 47 | 12 | 130 nM | 150 nM | 90 nM | – | COc1ccc2c(c1)N(CCCCCC(=O)NO)C(=O)c1ccccc1S2 | 30 nM | 16 | Active | – | –
795 | 30 nM | 8850 | 2110 | 40 nM | 60 nM | 30 nM | – | O=C(CCCCCN1C(=O)c2ccccc2S(=O)(=O)c2ccc(Cl)cc21)NO | 20 nM | 56 | – | – | –
1460 | 30 nM | 30600 | 4740 | 50 nM | 90 nM | 40 nM | – | COc1ccc2c(c1)N(CCCCCC(=O)NO)C(=O)c1ccccc1S2(=O)=O | 20 nM | 79 | – | – | –
244 | 390 nM | 199 | 7 | 250 nM | 280 nM | 360 nM | – | COc1ccc2c(c1)N(CCCCCC(=O)NO)C(=O)c1ccccc1N2 | 140 nM | 1 | – | – | –
336 | 500 nM | 10700 | 342 | 50 nM | 720 nM | 150 nM | 48 | O=C(CCCCCN1C(=O)c2ccccc2S(=O)(=O)c2ccccc21)NO | 120 nM | 14 | – | – | –
206 | 200 nM | 1780 | 61 | 90 nM | 320 nM | 310 nM | – | COc1ccc2c(c1)N(CCCCCC(=O)NO)C(=O)c1ccccc1O2 | 140 nM | 7 | – | – | –
2330 | 340 nM | 13200 | 200 | 150 nM | 360 nM | 60 nM | – | O=C(CCCCCN1C(=O)c2ccccc2Sc2ccc(Cl)cc21)NO | 30 nM | 31 | – | Active | inactive
